Results published in US8551957B2, “Pharmaceutical composition comprising a glucopyranosyl-substituted benzene derivate” (Boehringer Ingelheim International GmbH, priority 2007, dated 2013).

Experiments:
[1] = tested on: Sprague Dawley rats (Crl:CD(SD)); assay: oral glucose tolerance test in overnight fasted Sprague Dawley rats (2nd Example); format: in vivo, rat; settings: male Sprague Dawley rats, not statistically significant
Experimental: (§1) According to a second example an oral glucose tolerance test is performed in overnight fasted male Sprague Dawley rats (Crl:CD(SD)) with a body weight of about 200 g. A pre-dose blood sample is obtained by tail bleed. Blood glucose is measured with a glucometer, and the animals are randomized for blood glucose (n=5/group). Subsequently, the groups receive a single oral administration of either vehicle alone (0.5% aqueous hydroxyethylcellulose containing 0.015% Polysorbat 80) or vehicle containing either the glucopyranosyl-substituted benzene derivative or the DPPIV inhibitor or the combination of the glucopyranosyl-substituted benzene derivative with the DPPIV inhibitor. The animals receive an oral glucose load (2 g/kg) 30 min after compound administration. Blood glucose is measured in tail blood 30 min, 60 min, 90 min, and 120 min after the glucose challenge. Glucose excursion is quantified by calculating the reactive glucose AUC. The data are presented as mean±S.E.M. Statistical comparisons are conducted by Student's t test.
“Cpd. A” is the glucopyranosyl-substituted benzene derivative (9), i.e. 1-chloro-4-(β-D-glucopyranos-1-yl)-2-[4-((S)-tetrahydrofuran-3-yloxy)-benzyl]-benzene, administered at a dose of 3 mg/kg. The DPPIV inhibitor saxagliptin is administered at a dose of 0.3 mg/kg. […]

[2] = tested on: Sprague Dawley rats (Crl:CD(SD)); assay: oral glucose tolerance test in overnight fasted Sprague Dawley rats (3rd Example); format: in vivo, rat; settings: male Sprague Dawley rats, not statistically significant
Experimental: as §1
In a third example the same experimental setting is employed as in the second example as described herein before. The glucopyranosyl-substituted benzene derivative (9), i.e. 1-chloro-4-(β-D-glucopyranos-1-yl)-2-[4-((S)-tetrahydrofuran-3-yloxy)-benzyl]-benzene, is administered at a dose of 3 mg/kg. […]

[3] = tested on: Zucker Diabetic Fatty (ZDF) rats (ZDF/Crl-Lepr^fa); assay: oral glucose tolerance test in overnight fasted ZDF rats (1st Example); format: in vivo, rat; settings: male ZDF rats
Experimental: According to a first example an oral glucose tolerance test is performed in overnight fasted 9-weeks old male Zucker Diabetic Fatty (ZDF) rats (ZDF/Crl-Lepr^fa). A pre-dose blood sample is obtained by tail bleed. Blood glucose is measured with a glucometer, and the animals are randomized for blood glucose (n=5/group). Subsequently, the groups receive a single oral administration of either vehicle alone (0.5% aqueous hydroxyethylcellulose containing 3 mM HCl and 0.015% Polysorbat 80) or vehicle containing either the glucopyranosyl-substituted benzene derivative or the DPP IV inhibitor or the combination of the glucopyranosyl-substituted benzene derivative with the DPP IV inhibitor. The animals receive an oral glucose load (2 g/kg) 30 min after compound administration. Blood glucose is measured in tail blood 30 min, 60 min, 90 min, 120 min, and 180 min after the glucose challenge. Glucose excursion is quantified by calculating the reactive glucose AUC. The data are presented as mean±SEM. The two-sided unpaired Student t-test is used for statistical comparison of the control group and the active groups.
“Cpd. A” is the DPP IV inhibitor 1-[(4-methyl-quinazolin-2-yl)methyl]-3-methyl-7-(2-butyn-1-yl)-8-(3-(R)-amino-piperidin-1-yl)-xanthine at a dose of 1 mg/kg. Cpd. […]

[4] = in the diabetic, metformin on its own; cited from earlier work
[5] = single oral dose 3 mg/kg 30 min before glucose load 2 g/kg

SMILES: N#C[C@@H]1C[C@@H]2C[C@@H]2N1C(=O)[C@@H](N)C12CC3CC(CC(O)(C3)C1)C2 [saxagliptin, (1S,3S,5S)-2-{(2S)-2-amino-2-(3-hydroxyadamantan-1-yl)acetyl}-2-azabicyclo[3.1.0]hexane-3-carbonitrile, reference compound]
- reduction of glucose excursion (reactive glucose AUC) ([1]; single oral dose 0.3 mg/kg 30 min before glucose load 2 g/kg): 12%

SMILES: N[C@@H](CC(=O)N1CCn2c(nnc2C(F)(F)F)C1)Cc1cc(F)c(F)cc1F [sitagliptin, (3R)-3-amino-1-[3-(trifluoromethyl)-5,6,7,8-tetrahydro-5H-[1,2,4]triazolo[4,3-a]pyrazin-7-yl]-4-(2,4,5-trifluorophenyl)butan-1-one, reference compound]
- reduction of glucose excursion (reactive glucose AUC) ([2]; single oral dose 10 mg/kg 30 min before glucose load 2 g/kg): 16%

SMILES: CC#CCn1c(N2CCC[C@@H](N)C2)nc2c1c(=O)n(Cc1nc(C)c3ccccc3n1)c(=O)n2C [Cpd. A, 1-[(4-methyl-quinazolin-2-yl)methyl]-3-methyl-7-(2-butyn-1-yl)-8-(3-(R)-amino-piperidin-1-yl)-xanthine]
- reduction of glucose excursion (reactive glucose AUC) ([3]; single oral dose 1 mg/kg 30 min before oral glucose load 2 g/kg): 56%

SMILES: CN(C)C(=N)N=C(N)N [metformin]
- average improvement in the HbA1c value [4]: 1.0-1.5%

SMILES: OC[C@H]1O[C@@H](c2ccc(Cl)c(Cc3ccc(O[C@H]4CCOC4)cc3)c2)[C@H](O)[C@@H](O)[C@@H]1O [(9), 1-chloro-4-(β-D-glucopyranos-1-yl)-2-[4-((S)-tetrahydrofuran-3-yloxy)-benzyl]-benzene]
- reduction of glucose excursion (reactive glucose AUC) [1, 5]: 21%
- reduction of glucose excursion (reactive glucose AUC) ([3]; single oral dose 3 mg/kg 30 min before oral glucose load 2 g/kg): 51%
- reduction of glucose excursion (reactive glucose AUC) [2, 5]: 21%
